Patent US20240075000A1 (priority 2021, published 2024)
Counter-ions that a name gives are not always drawn.

Columns and labels:
[1] = test system: Amyotrophic Lateral Sclerosis (ALS) patients; test: Phase 1 clinical trial in ALS, patient testimonials; type: in vivo, human; settings: 1000 mg BID, dose taken without food; went away on eating
Description: A Phase 1 clinical trial was conducted with the Inventor supplying the anhydrous enol-oxaloacetate drug. Typically, Phase 1 clinical trials focus on the safety of a proposed drug, but patient response efficacy is also important and is noted. […] My name is […]. I was diagnosed with Bulbar onset ALS by Dr. Jawdat at the KU Medical Center in Kansas City KS on Oct. 14, 2020. […] I have muscle fasciculations pretty much all over my body at times and most are constant. The first 4 to 5 days taking the supplement, I did feel like they intensified an hour to two hours after taking it, and it lasted for approximately an hour or two. After those 4 or 5 days, it went back to the normal strength. At approximately the third week of taking the supplement I began to notice my tongue movement had better range of motion. I could see it pushing out the side of my cheek, I couldn't get it over there before. I also have felt like my left hand has gained a little strength and grip and I feel like I have a bit more strength in my left wrist. I do however feel like most things are still declining, but with such a short time of trying the supplement, I want to keep taking it to see if things can keep improving/changing. I am currently not on any ALS medications but do take some vitamins. • Patient 2. My spouse, Nathan, was part of a study with oxaloacetate for ALS. […]

[2] = test system: post-COVID-19 fatigue patient; test: post-COVID-19 fatigue case, physician (Example 3); settings: 500 mg BID; for Visual Fatigue Score: baseline 3, range 0 worst to 10 no fatigue; for Chalder Fatigue Score: range 33 worst to 0 no fatigue; for Fatigue Severity Score: baseline 54, range 63 worst to 9 no fatigue; for PROMIS Fatigue 7a: range 35 worst to 7 no fatigue
[3] = test system: post-COVID-19 fatigue patient; test: post-COVID-19 fatigue case (Example 5); type: in vivo, human; settings: 500 mg BID
Description: Afterwards, although their fever was resolved, they experienced fatigue so extreme that it was difficult for them to walk to the bathroom. They started taking 500 mg anhydrous enol-oxaloacetate BID for 45 days. Within 3 days 80% of fatigue was resolved. After 30 days, 100% of their fatigue was resolved.

[4] = test system: patient; test: one-year high-dose tolerability in a patient; type: in vivo, human; settings: up to 6,000 mg/day for one year in a patient

Which results are given for `O=C(O)CC(=O)C(=O)O` [anhydrous enol-oxaloacetate, hydroxy fumarate]?
side effect noticed by the patient [1]: upset stomach; Visual Fatigue Score ([2]; Final, Dec. 3, 2020): 10; Chalder Fatigue Score ([2]; Final, Dec. 3, 2020, baseline 22): 2; Fatigue Severity Score ([2]; Final, Dec. 3, 2020): 20; PROMIS Fatigue 7a ([2]; Final, Dec. 3, 2020): 11; Visual Fatigue Score ([2]; Nov. 3, 2020): 4; Fatigue Severity Score ([2]; Nov. 3, 2020): 54; PROMIS Fatigue 7a ([2]; Nov. 3, 2020, baseline N/A): 25; Chalder Fatigue Score ([2]; Nov. 3, 2020, baseline Oct. 14, 2020 22): 16; fatigue resolved ([3]; after 30 days): 100%; fatigue resolved ([3]; within 3 days): 80%; side effects [4]: no negative side effects
